The values that follow come from patent US9096646B2, “CXCR4 receptor compounds” (priority 2008, dated 2015).

Where “and” joins values, the source holds several entries; their conditions need not be identical. Identical values can stand only once. Like-named read-outs stand apart in the source and are kept apart here. Square brackets hold non-standard residues; d marks the D form. Ends that are not written are not given here. Peptide text beside a SMILES is read from it. * marks the point of attachment. ξ: configuration not given here. Biotin = O=C1N[C@H]2[C@H](CS[C@H]2CCCCC(=O)*)N1; ξGly(nC16H33) = CCCCCCCCCCCCCCCCC(N)C(=O)O; Palmitoyl = CCCCCCCCCCCCCCCC(=O)*

For the assay, the target named is CXCR4 (Homo sapiens, UniProt P61073). The assay can be described thus: Chemotaxis assay, effect on SDF1-a (CXCL12) induced migration of CCRF-CEM cells. The note with it: CEM cells; for activity at 1 µM / activity at 0.01 µM / activity at 0.03 µM / activity at 0.1 µM / activity at 0.3 µM / activity at 3 µM: CCRF-CEM. The class given is cell-based. Also on record: a human T-cell ALL line that endogenously expresses CXCR4; endogenous in cells; host or cells: CCRF-CEM (human T-cell ALL line).

[1] abbreviates: Table 18, i1 loop, drug conc 1.0 uM, read-out: AUC (% of).
[2] abbreviates: Table 18, i1 loop, drug conc 1.0 uM, read-out: Max (% of).
Setting [3] is: Table 18, i1 loop, drug conc 1.0 uM.
[4] abbreviates: Table 20, i3 loop, conc 1.0 uM, read-out: AUC (% of vehicle).
[5] abbreviates: Table 20, i3 loop, conc 1.0 uM, read-out: Max (% of vehicle).
The mark [6] stands for this setting: Table 20, i3 loop, conc 1.0 uM, peak test compound/peak control.

Sequence of CXCR4 (P61073 whole entry): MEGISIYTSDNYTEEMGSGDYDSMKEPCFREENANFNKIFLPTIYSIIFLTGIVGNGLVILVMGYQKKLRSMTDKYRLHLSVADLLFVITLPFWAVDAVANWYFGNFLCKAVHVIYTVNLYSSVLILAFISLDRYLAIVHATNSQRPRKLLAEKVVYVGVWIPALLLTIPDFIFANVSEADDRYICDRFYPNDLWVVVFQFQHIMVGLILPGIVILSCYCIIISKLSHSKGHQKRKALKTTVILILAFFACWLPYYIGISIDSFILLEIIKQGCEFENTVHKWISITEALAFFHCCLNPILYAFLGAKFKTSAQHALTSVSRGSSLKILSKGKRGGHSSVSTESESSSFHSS
Text: Chemotaxis assays were utilized to determine the effect of compound on the directed migration of cells in response to chemokine. Cells that express a receptor of interest were placed in the upper chamber of a Transwell chemotaxis plate (Corning) and allowed to migrate through a polycarbonate membrane to a lower chamber containing the appropriate receptor-specific ligand. To test for antagonist or potentiating activity, cells were mixed with the desired concentration of compound prior to addition to the upper chamber. Conversely, agonist activity was determined by adding compound in the bottom chamber only without endogenous chemokine. The effect of compound is quantified by several parameters, including the extent of maximum response, the shift of agonist dose-response curves, and the area under the curve.
To measure the CXCR4-dependent migration of cells, the appropriate concentration of CXCL12 (SDF1a) or test compound was diluted in phenol red-free RMPI-1640/20 mM HEPES/0.5% BSA buffer and placed in the bottom chamber of a transwell apparatus. CCRF-CEM cells, a human T-cell ALL line that endogenously expresses CXCR4, were washed twice in buffer and resuspended at 133,000 cells/ml. A 75 μl sample of this suspension is mixed with the test compound of interest and placed in the upper chamber of a 5-micron transwell apparatus.
To initiate cell migration, the assembled transwell plate was placed in a 37° C., 0.5% CO2 incubator for a specified time interval, typically between 30 and 120 minutes. After incubation, the unit was disassembled and the lower chamber placed at −80° C. overnight to facilitate lysis of cells. To quantify migrated cells, plates were thawed at 37° C. in a humidified chamber, and then a sample volume was removed from each well and mixed with an equal volume of CyQuant (Invitrogen) working solution in opaque plates. The fluorescence intensity of each well represents the DNA content and is directly proportional to cell number. […] The plate background control, which included no cells in the upper chamber, was subtracted from all values.

As to “108: CXCR4 i4 domain compound (GAKFKTSAQHALTSVSRGSSLKILSKGKRG) [Compound 108]”, where the note is “Table 21, i4 loop, conc 1.0 uM”, the “AUC (% of vehicle)” value was 89.47 % of Vehicle, the “Max (% of vehicle)” value was 83.94 % of Vehicle and the “Peak Test Comp.” value is given as 25 nM.

As to `CCCCCCCCCCCCCCCCC(NC(=O)CCCC[C@@H]1SC[C@@H]2NC(=O)N[C@@H]21)C(=O)N[C@@H](CCSC)C(=O)NCC(=O)N[C@@H](Cc1ccc(O)cc1)C(=O)N[C@@H](CCC(N)=O)C(=O)N[C@@H](CCCCN)C(=O)N[C@@H](CCCCN)C(=O)N[C@@H](CC(C)C)C(=O)N[C@@H](CCCNC(=N)N)C(=O)N[C@@H](CO)C(=O)N[C@@H](CCSC)C(=O)N[C@H](C(=O)N[C@@H](CC(=O)O)C(N)=O)[C@@H](C)O` (some centres unmarked) [Compound 33] (Biotin-[ξGly(nC16H33)]MGYQKKLRSMTD-NH2), the activity at 1 µM was 54.8% under setting [1] and 76.1% under setting [2].

“53 (MGYQKKLRSMTDKYRLHL; not fully specified) [Compound 53]”: under setting [3], the “AUC (% of)” value was 60.98 % of and 91.1 % of; the “Max (% of)” value was 68.45 % of and 89.56 % of.

With `CCCCCCCCCCCCCCCC(=O)N[C@@H](Cc1cnc[nH]1)C(=O)N[C@@H](CO)C(=O)N[C@@H](CCCCN)C(=O)NCC(=O)N[C@@H](Cc1cnc[nH]1)C(=O)N[C@@H](CCC(N)=O)C(=O)N[C@@H](CCCCN)C(=O)N[C@@H](CCCNC(=N)N)C(=O)N[C@@H](CCCCN)C(=O)N[C@@H](C)C(=O)N[C@@H](CC(C)C)C(=O)N[C@@H](CCCCN)C(=O)N[C@H](C(=O)N[C@H](C(=O)N[C@H](C(N)=O)C(C)C)[C@@H](C)O)[C@@H](C)O` [Compound 99] (Palmitoyl-HSKGHQKRKALKTTV-NH2), the activity at 1 µM was determined as 45% under setting [4] and 64.5% under setting [5]. Also, the “Peak Test Compound” value (Table 20, i3 loop, conc 1.0 uM) was found to be 0.2 nM. Further, the “Peak Ratio” value under setting [6] came to 0.2.

Take `CCCCCCCCCCCCCCCC(=O)N[C@@H](CO)C(=O)NCC(=O)N[C@@H](Cc1ccc(O)cc1)C(=O)N[C@@H](CCC(N)=O)C(=O)N[C@@H](CCCCN)C(=O)N[C@@H](CCCCN)C(=O)N[C@@H](CC(C)C)C(=O)N[C@@H](CCCNC(=N)N)C(=O)N[C@@H](CO)C(=O)N[C@@H](CO)C(=O)N[C@H](C(=O)N[C@@H](CC(=O)O)C(N)=O)[C@@H](C)O` [Compound 69] (Palmitoyl-SGYQKKLRSSTD-NH2): the activity at 1 µM was 100% under setting [1] and 93.1% under setting [2]. Further, the “Peak Test Comp.” value under setting [3] was 25 nM. The “Peak Ratio” value (Table 18, i1 loop, drug conc 1.0 uM, peak test comp./peak control) came to 1.

In the case of `CCCCCCCCCCCCCCCC(=O)N[C@@H](Cc1cnc[nH]1)C(=O)N[C@@H](CO)C(=O)N[C@@H](CCCCN)C(=O)NCC(=O)N[C@@H](Cc1cnc[nH]1)C(=O)N[C@@H](CCC(N)=O)C(=O)N[C@@H](CCCCN)C(=O)N[C@@H](CCCNC(=N)N)C(=O)N[C@@H](CCCCN)C(=O)N[C@@H](C)C(=O)N[C@@H](CC(C)C)C(=O)N[C@@H](CCCCN)C(=O)N[C@H](C(N)=O)[C@@H](C)O` [Compound 97] (Palmitoyl-HSKGHQKRKALKT-NH2), the activity at 1 µM under setting [4] amounted to 48.9% and the activity at 1 µM under setting [5] amounted to 54.7%. Where the note is “Table 20, i3 loop, conc 1.0 uM”, the “Peak Test Compound” value worked out at 1 nM. Also, under setting [6], the “Peak Ratio” value turned out to be 0.2.

With `CCCCCCCCCCCCCCCC(=O)N[C@@H](CC(C)C)C(=O)N[C@@H](CO)C(=O)N[C@@H](Cc1cnc[nH]1)C(=O)N[C@@H](CO)C(=O)N[C@@H](CCCCN)C(=O)NCC(=O)N[C@@H](Cc1cnc[nH]1)C(=O)N[C@@H](CCC(N)=O)C(=O)N[C@@H](CCCCN)C(=O)N[C@@H](CCCNC(=N)N)C(=O)N[C@@H](CCCCN)C(=O)N[C@@H](C)C(=O)N[C@@H](CC(C)C)C(=O)N[C@@H](CCCCN)C(N)=O` [Compound 95] (Palmitoyl-LSHSKGHQKRKALK-NH2), the activity at 1 µM reads like this: under setting [4], 77.5%; under setting [5], 92.1%. Under “Table 20, i3 loop, conc 1.0 uM”, the “Peak Test Compound” value came to 1 nM. The “Peak Ratio” value under setting [6] is listed as 1.

As to “109: CXCR4 i4 domain compound (GAKFKTSAQHALTSVSRGSSLKILSKGKRGGHSSVST) [Compound 109]”, under “Table 21, i4 loop, conc 1.0 uM”, the “AUC (% of vehicle)” value is 49.31 % of Vehicle, the “Max (% of vehicle)” value is on record as 49.84 % of Vehicle and the “Peak Test Comp.” value was 0.2 nM.

Regarding “89: CXCR4 i3 loop compound (KLSHSKGHQKRKALKTTVIL) [Compound 89]”, under “Table 20, i3 loop, conc 1.0 uM”, the “AUC (% of vehicle)” value is given as 37.55 % of vehicle and the “Max (% of vehicle)” value is reported as 59.71 % of vehicle.

As for `CCCCCCCCCCCCCCCC(=O)N[C@@H](CCCCN)C(=O)N[C@@H](CC(C)C)C(=O)N[C@@H](CO)C(=O)N[C@@H](Cc1cnc[nH]1)C(=O)N[C@@H](CO)C(=O)N[C@@H](CCCCN)C(=O)NCC(=O)N[C@@H](Cc1cnc[nH]1)C(=O)N[C@@H](CCC(N)=O)C(=O)N[C@@H](CCCCN)C(=O)N[C@@H](CCCNC(=N)N)C(=O)N[C@@H](CCCCN)C(=O)N[C@@H](C)C(=O)N[C@@H](CC(C)C)C(=O)N[C@@H](CCCCN)C(N)=O` [Compound 92] (Palmitoyl-KLSHSKGHQKRKALK-NH2), the activity at 0.01 µM reads like this: (Table 20, i3 loop, conc 0.01 uM, read-out: AUC (% of vehicle)) 158%; (Table 20, i3 loop, conc 0.01 uM, read-out: Max (% of vehicle)) 156%. The activity at 0.03 µM (Table 20, i3 loop, conc 0.03 uM, read-out: AUC (% of vehicle)) came out at 200% and the activity at 0.03 µM (Table 20, i3 loop, conc 0.03 uM, read-out: Max (% of vehicle)) came out at 198%. The activity at 0.1 µM reads like this: (Table 20, i3 loop, conc 0.1 uM, read-out: AUC (% of vehicle)) 174%; (Table 20, i3 loop, conc 0.1 uM, read-out: Max (% of vehicle)) 169%. Moreover, the activity at 0.3 µM (Table 20, i3 loop, conc 0.3 uM, read-out: AUC (% of vehicle)) was 180% and the activity at 0.3 µM (Table 20, i3 loop, conc 0.3 uM, read-out: Max (% of vehicle)) was 165%. The activity at 3 µM runs as follows: (Table 20, i3 loop, conc 3.0 uM, read-out: AUC (% of vehicle)) 184%; (Table 20, i3 loop, conc 3.0 uM, read-out: Max (% of vehicle)) 176%. Further, the “Peak Test Compound” value was 0.16 nM (Table 20, i3 loop, conc 0.01 uM); 0.16 nM (Table 20, i3 loop, conc 0.03 uM); 0.16 nM (Table 20, i3 loop, conc 0.1 uM); 0.16 nM (Table 20, i3 loop, conc 0.3 uM); 0.2 nM and 0.16 nM (Table 20, i3 loop, conc 1.0 uM); 0.8 nM (Table 20, i3 loop, conc 3.0 uM). The “Peak Ratio” value by setting is: (Table 20, i3 loop, conc 0.01 uM, peak test compound/peak control) 0.2; (Table 20, i3 loop, conc 0.03 uM, peak test compound/peak control) 0.2; (Table 20, i3 loop, conc 0.1 uM, peak test compound/peak control) 0.2; (Table 20, i3 loop, conc 0.3 uM, peak test compound/peak control) 0.2; under setting [6], 0.2; (Table 20, i3 loop, conc 3.0 uM, peak test compound/peak control) 1.
